Assay results taken from patent US12102633B2, “Spirolactone compounds” (Quixgen, Inc., priority 2017, dated 2024).

Key:
[1] = Plasma protein binding (mouse); type: in vitro ADME; settings: % free, read-out: PPB (h/m) % free, mouse
Experimental: (§1) The data in Table 5 were obtained by following the methods disclosed in this application and/or those standard techniques known in the art. ACC enzyme activities were measured according to Biological Examples 1 and 2; Malonyl-CoA in sebocytes were measured according to Biological Example 4; Effect on lipogenesis of 3T3-L1 adipocytes were measured according to Biological Example 7; Effect on lipogenesis of sebocytes were measured according to Biological Example 5; Effect on proliferation of sebocytes were measured according to Biological Example 6; Mouse PK were measured according to Biological Example 10; and Plasma protein binding (human or mouse) were measured by standard technique.

human ACC1 = target: T1, human ACC1 (Homo sapiens, UniProt Q13085); test: Human ACC enzymatic activity assay (ACC1); type: biochemical; settings: purified human ACC1; read-out: EA-CoA hACC 1 IC50
T1 construct: purchased BPS Bioscience
In short: (§2)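 Purified human ACC1 (0.4 μg/mL) or ACC2 (0.48 μg/mL) was preincubated with compound 10 min at 37° C in HEPES pH 7.5 with 4.0 mM ATP and 15 mM ^13C-NaHCO3. The reaction was started with 5 μM acetyl-CoA, run 1-2 h at 37° C and stopped with TCA. Labelled malonyl-CoA was quantified by LC-MS/MS.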

[2] = Plasma protein binding (human); type: in vitro ADME; settings: % free, read-out: PPB (h/m) % free, human
Experimental: as §1

human ACC2 = target: T2, human ACC2 (Homo sapiens, UniProt O00763); test: Human ACC enzymatic activity assay (ACC2); type: biochemical; settings: purified human ACC2; read-out: EA-CoA hACC 2 IC50
T2 construct: purchased BPS Bioscience
T2 sequence (O00763 whole entry): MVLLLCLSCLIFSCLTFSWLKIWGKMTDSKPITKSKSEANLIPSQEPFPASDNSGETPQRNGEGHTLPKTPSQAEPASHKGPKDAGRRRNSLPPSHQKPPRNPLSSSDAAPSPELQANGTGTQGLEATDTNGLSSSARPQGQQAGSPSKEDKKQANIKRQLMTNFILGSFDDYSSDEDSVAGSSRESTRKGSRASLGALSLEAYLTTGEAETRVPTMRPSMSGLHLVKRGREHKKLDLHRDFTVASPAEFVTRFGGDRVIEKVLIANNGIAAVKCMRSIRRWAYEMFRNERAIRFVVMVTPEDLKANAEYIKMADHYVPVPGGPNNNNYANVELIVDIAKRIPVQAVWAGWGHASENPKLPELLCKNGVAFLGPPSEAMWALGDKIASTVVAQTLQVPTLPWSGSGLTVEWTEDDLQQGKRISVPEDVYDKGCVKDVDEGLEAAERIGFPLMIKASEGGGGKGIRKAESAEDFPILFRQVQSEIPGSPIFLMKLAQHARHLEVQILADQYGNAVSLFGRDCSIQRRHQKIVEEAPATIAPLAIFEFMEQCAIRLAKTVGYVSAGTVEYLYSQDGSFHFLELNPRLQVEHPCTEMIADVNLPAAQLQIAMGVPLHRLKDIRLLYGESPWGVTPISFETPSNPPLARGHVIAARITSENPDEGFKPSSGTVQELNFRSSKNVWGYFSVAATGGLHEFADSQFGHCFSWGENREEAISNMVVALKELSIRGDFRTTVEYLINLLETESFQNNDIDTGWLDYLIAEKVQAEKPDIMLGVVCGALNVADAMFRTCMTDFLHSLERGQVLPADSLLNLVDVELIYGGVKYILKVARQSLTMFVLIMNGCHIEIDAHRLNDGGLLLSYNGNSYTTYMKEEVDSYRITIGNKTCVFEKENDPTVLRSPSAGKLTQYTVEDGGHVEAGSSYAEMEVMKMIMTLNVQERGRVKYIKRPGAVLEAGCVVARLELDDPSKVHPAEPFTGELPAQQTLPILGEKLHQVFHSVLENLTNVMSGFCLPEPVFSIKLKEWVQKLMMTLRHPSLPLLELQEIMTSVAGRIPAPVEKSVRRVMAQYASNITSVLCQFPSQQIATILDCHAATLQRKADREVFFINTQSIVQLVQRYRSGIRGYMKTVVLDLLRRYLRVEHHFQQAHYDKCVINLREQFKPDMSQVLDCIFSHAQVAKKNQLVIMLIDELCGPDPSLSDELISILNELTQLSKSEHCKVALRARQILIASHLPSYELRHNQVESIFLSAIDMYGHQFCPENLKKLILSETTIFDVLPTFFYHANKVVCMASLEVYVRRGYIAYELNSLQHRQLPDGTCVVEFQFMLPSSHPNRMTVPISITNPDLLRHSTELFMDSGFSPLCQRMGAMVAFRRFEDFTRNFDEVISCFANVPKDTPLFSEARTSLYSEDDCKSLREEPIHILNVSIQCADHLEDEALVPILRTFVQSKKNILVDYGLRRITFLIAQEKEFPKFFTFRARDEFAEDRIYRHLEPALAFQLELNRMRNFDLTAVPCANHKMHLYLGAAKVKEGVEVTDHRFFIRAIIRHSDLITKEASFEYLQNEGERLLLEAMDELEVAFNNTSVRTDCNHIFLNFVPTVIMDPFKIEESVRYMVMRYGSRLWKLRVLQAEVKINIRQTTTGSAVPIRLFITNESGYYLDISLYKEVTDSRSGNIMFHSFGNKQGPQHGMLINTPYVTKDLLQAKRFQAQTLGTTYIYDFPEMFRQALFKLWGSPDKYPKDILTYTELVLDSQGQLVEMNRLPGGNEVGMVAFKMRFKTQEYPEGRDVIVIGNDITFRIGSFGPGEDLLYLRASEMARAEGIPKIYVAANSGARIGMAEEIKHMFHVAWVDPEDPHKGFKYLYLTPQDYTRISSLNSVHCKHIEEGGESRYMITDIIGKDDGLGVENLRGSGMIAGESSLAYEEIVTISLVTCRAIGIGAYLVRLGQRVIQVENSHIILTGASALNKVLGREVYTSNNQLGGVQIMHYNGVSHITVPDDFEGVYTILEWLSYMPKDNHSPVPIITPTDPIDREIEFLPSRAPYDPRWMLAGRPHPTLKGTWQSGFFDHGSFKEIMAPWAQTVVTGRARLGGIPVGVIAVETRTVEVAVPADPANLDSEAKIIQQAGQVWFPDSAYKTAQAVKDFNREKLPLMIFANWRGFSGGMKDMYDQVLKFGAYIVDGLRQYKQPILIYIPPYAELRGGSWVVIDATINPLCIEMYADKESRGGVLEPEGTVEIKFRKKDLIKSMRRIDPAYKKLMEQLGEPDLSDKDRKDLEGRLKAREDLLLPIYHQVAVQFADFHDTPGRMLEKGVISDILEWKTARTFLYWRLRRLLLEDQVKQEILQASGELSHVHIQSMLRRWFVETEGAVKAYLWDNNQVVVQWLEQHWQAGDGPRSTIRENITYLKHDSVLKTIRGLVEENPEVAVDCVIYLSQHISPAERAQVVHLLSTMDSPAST
In short: as §2

Human sebocytes [3] = test: Cellular levels of malonyl-CoA in human sebocytes; type: cell-based; settings: 0.5 h, 30 min incubation, read-out: Malonyl-CoA in Sebo IC50
Experimental: Shimadzu LC system was used for sample analysis consisting of system controller (Shimadzu CBM-20A), autosampler (Shimadzu SIL-20A), pump A and B (Shimadzu LC-20AD), column oven (Shimadzu CTO-20A), and analytical column (Phenomenex Gemini 5u C18 11A, 100×2 mm). LC was running at 200 μL/min in the binary gradient mode with mobile phase A (5 mM Ammonium Acetate and 5 mM DMBA in water (1,3-Dimethylbutylamine)) and B (methanol). The samples were analyzed on an AB Sciex QTrap4000 LC-MS/MS triple quadrupole mass spectrometer (Applied Biosystems). Malonyl-CoA and malonyl-13C-CoA were monitored in positive ion mode following MRM transitions at 854.2/347.1 and 855.1/246.1, respectively. The product and internal standard were coeluted to the mass spectrometer in 3 s with 50% H2O, 25% MeCN, 25% acetone, and 5 mM ammonium acetate. Ion chromatograms were integrated using the Analyst 1.5.2 software. Peak area ratios were compared against a standard curve and final cellular concentration of malonyl-CoA or production rate of malonyl-13C-CoA was calculated as pmoles/mg protein per minute.
Human sebocytes (Celprogen) were grown in growth media (DMEM with 4.5 g/L glucose, 0.584 g/L L-glutamine (Sigma), 100 units/mL of penicillin and 100 μg/mL of streptomycin (Gibco), 10% fetal bovine serum (Gibco)) at 37° C. in a humidified water jacketed incubator (Forma Scientific) supplemented with 5% CO2 till 100% confluency. Cells grown in 152 cm^2 cell culture dish (Corning) were trypsinized with 0.25% trypsin-EDTA (Gibco), centrifuged at 800 rpm for 10 min (Eppendorf) and resuspended in 4 mL growth media. To 1 μL serial diluted compounds in DMSO, 99 μL cells (around 0.5 million cells suspended in growth media) were added and mixed well followed by incubation in cell culture incubator for 30 min. Cells were then centrifuged at 800 rpm for 10 min and 70 μL 10% trichloroacetic acid was added to each well to lyse the cells and precipitate proteins. Cellular levels of malonyl-CoA were quantitated by LC-MS/MS.

Human sebocytes [4] = test: Proliferation of human sebocytes; type: cell-based; settings: 24 hours, MTT, read-out: AP-Sebo IC50
Experimental: Human sebocytes (Celprogen) and keratinocytes (ATCC) were grown in 96-well culture microplate (Coming) with growth media to around 50% confluency. Media was changed to growth media mixed with serially diluted compounds in DMSO (1:1000 dilution). After treatment for 24 hours, media was changed to 100 μL phenol red free DMEM and cell numbers were quantitated by using Vybrant® MTT Cell Proliferation Assay Kit (Molecular Probes). Ten μL of 12 mM MTT stock solution was added to each well and the microplate was incubated at 37° C. for 4 hours. Then 100 μL of the SDS-HCl solution was added to each well and mixed thoroughly using a pipette. The microplate was incubated at 37° C. for 4 hours in a cell culture incubator. The microplate was mixed again using a pipette and absorbance was read at 570 nm (Dynex MRX^e Magellan Biosciences). Effect of compounds on proliferation of human keratinocytes was calculated by % of DMSO vehicle control.

Human sebocytes [5] = test: Lipogenesis of human sebocytes; type: cell-based; settings: 96 hours, nile red, read-out: LG-Sebo IC50
Experimental: Human sebocytes (Celprogen) were grown in collagen-coated 96-well culture microplate (White/Clear bottom, Coming BioCoat) with growth media till 100% confluency. Culture media was changed to growth media plus 100 μM arachidonic acid (Sigma) and 10 μM rosiglitazone (Tocris) with compounds prepared in DMSO (1:1000 dilution in growth media). Cells were treated with compounds for 96 hours with media containing compounds changed after 48 hours. Upon completion of treatment, cells were washed with 200 μL Phosphate Buffered Saline (PBS) and then fixed by adding 100 μL 4% formaldehyde (Sigma) and incubated at room temperature for 1 hour. Cells were then washed 3 times with PBS. Microplate was stained with 100 μL nile red solution prepared in PBS (2 mg/mL, 1:400 dilution) by incubating at 37° C. for 1 hour and then washed 3 times with PBS. The fluorescence was read at Ex 492 nm and Em 595 nm (TECAN SpectrofluorPlus). Effect of compounds on lipogenesis in sebocytes was calculated by % of DMSO vehicle control.

| fraction unbound [1] | IC50 (human ACC1) [nM] | fraction unbound [2] | IC50 (human ACC2) [nM] | IC50 (Human sebocytes [3]) [nM] | IC50 (Human sebocytes [5]) [nM] | SMILES | IC50 (Human sebocytes [4]) [nM] |
| --- | --- | --- | --- | --- | --- | --- | --- |
| 0.0073 | 36.2 | 0.0036 | 31.2 | 47.4 |  | COc1cc(C(=O)N2CCC3(CC2)Cc2ccc(Nc4ccnn4C)cc2C(=O)O3)nc2c(OC)cccc12 [Example 6, 1′-(4,8-dimethoxyquinoline-2-carbonyl)-7-((1-methyl-1H-pyrazol-5-yl)amino)spiro[isochroman-3,4′-piperidin]-1-one] | 2.5 |
| 0.0028 |  | 0.0037 |  |  | 25 | COc1cc(C(=O)N2CCC3(CC2)Cc2ccc(C(C)C)cc2C(=O)O3)nc2c(OC)cccc12 [Example 2, 1′-(4,8-dimethoxyquinoline-2-carbonyl)-7-isopropylspiro[isochroman-3,4′-piperidin]-1-one] | 57.1 |
